Bridge positions count the residues as written; N and C are the ends. Ends that are not written are not given here.
System: patients with chronic idiopathic constipation (CIC)
Experiment: Second phase 3 CIC trial: change from baseline in stool consistency (BSFS)
Type: in vivo, human
Conditions: 6 mg
[1] = Post-Treatment Week 14, ITT Population-Excluding Duplicate Patients
[2] = Week 1, All Randomized (includes Duplicate Patients)
[3] = Week 1, ITT Population-Excluding Duplicate Patients
[4] = Week 2, All Randomized (includes Duplicate Patients)
[5] = Week 2, ITT Population-Excluding Duplicate Patients
[6] = Week 3, All Randomized (includes Duplicate Patients)
[7] = Week 3, ITT Population-Excluding Duplicate Patients
[8] = Week 4, All Randomized (includes Duplicate Patients)
[9] = Week 4, ITT Population-Excluding Duplicate Patients
[10] = Week 5, All Randomized (includes Duplicate Patients)
[11] = Week 5, ITT Population-Excluding Duplicate Patients
[12] = Week 6, All Randomized (includes Duplicate Patients)
[13] = Week 6, ITT Population-Excluding Duplicate Patients
[14] = Week 7, All Randomized (includes Duplicate Patients)
[15] = Week 7, ITT Population-Excluding Duplicate Patients
[16] = Week 8, All Randomized (includes Duplicate Patients)
[17] = Week 8, ITT Population-Excluding Duplicate Patients

Asn^1-Asp^2-Glu^3-Cys^4-Glu^5-Leu^6-Cys^7-Val^8-Asn^9-Val^10-Ala^11-Cys^12-Thr^13-Gly^14-Cys^15-Leu^16 (NDECELCVNVACTGCL; disulfide 4-12, 7-15) [Plecanatide, uroguanylin analogue, guanylate cyclase-C agonist; (C4:C12, C7:C15) bicycle peptide]
Change from Baseline in Stool Consistency, LS Mean (SE) [1]: 1.07 (0.074)
Change from Baseline in Stool Consistency, Mean (SD) [1]: 1.05 (1.358)
Change from Baseline in Stool Consistency, Difference from Placebo [2]: 0.84
Change from Baseline in Stool Consistency, LS Mean (SE) [2]: 1.41 (0.071)
Change from Baseline in Stool Consistency, Mean (SD) [2]: 1.43 (1.501)
Change from Baseline in Stool Consistency, Difference from Placebo (Week 1, ITT Population): 0.84
Change from Baseline in Stool Consistency, LS Mean (SE) (Week 1, ITT Population): 1.44 (0.073)
Change from Baseline in Stool Consistency, Mean (SD) (Week 1, ITT Population): 1.45 (1.501)
Change from Baseline in Stool Consistency, Difference from Placebo [3]: 0.86
Change from Baseline in Stool Consistency, LS Mean (SE) [3]: 1.47 (0.073)
Change from Baseline in Stool Consistency, Mean (SD) [3]: 1.47 (1.495)
Change from Baseline in Stool Consistency, Difference from Placebo [4]: 0.67
Change from Baseline in Stool Consistency, LS Mean (SE) [4]: 1.36 (0.071)
Change from Baseline in Stool Consistency, Mean (SD) [4]: 1.36 (1.560)
Change from Baseline in Stool Consistency, Difference from Placebo (Week 2, ITT Population): 0.68
Change from Baseline in Stool Consistency, LS Mean (SE) (Week 2, ITT Population): 1.39 (0.073)
Change from Baseline in Stool Consistency, Mean (SD) (Week 2, ITT Population): 1.38 (1.560)
Change from Baseline in Stool Consistency, Difference from Placebo [5]: 0.68
Change from Baseline in Stool Consistency, LS Mean (SE) [5]: 1.41 (0.074)
Change from Baseline in Stool Consistency, Mean (SD) [5]: 1.39 (1.562)
Change from Baseline in Stool Consistency, Difference from Placebo [6]: 0.53
Change from Baseline in Stool Consistency, LS Mean (SE) [6]: 1.41 (0.072)
Change from Baseline in Stool Consistency, Mean (SD) [6]: 1.44 (1.479)
Change from Baseline in Stool Consistency, Difference from Placebo (Week 3, ITT Population): 0.54
Change from Baseline in Stool Consistency, LS Mean (SE) (Week 3, ITT Population): 1.44 (0.074)
Change from Baseline in Stool Consistency, Mean (SD) (Week 3, ITT Population): 1.46 (1.480)
Change from Baseline in Stool Consistency, Difference from Placebo [7]: 0.55
Change from Baseline in Stool Consistency, LS Mean (SE) [7]: 1.46 (0.074)
Change from Baseline in Stool Consistency, Mean (SD) [7]: 1.47 (1.485)
Change from Baseline in Stool Consistency, Difference from Placebo [8]: 0.54
Change from Baseline in Stool Consistency, LS Mean (SE) [8]: 1.41 (0.071)
Change from Baseline in Stool Consistency, Difference from Placebo (Week 4, ITT Population): 0.52
Change from Baseline in Stool Consistency, LS Mean (SE) (Week 4, ITT Population): 1.42 (0.074)
Change from Baseline in Stool Consistency, Mean (SD) (Week 4, ITT Population): 1.42 (1.603)
Change from Baseline in Stool Consistency, Difference from Placebo [9]: 0.53
Change from Baseline in Stool Consistency, LS Mean (SE) [9]: 1.44 (0.074)
Change from Baseline in Stool Consistency, Mean (SD) [9]: 1.42 (1.608)
Change from Baseline in Stool Consistency, Difference from Placebo [10]: 0.67
Change from Baseline in Stool Consistency, LS Mean (SE) [10]: 1.52 (0.072)
Change from Baseline in Stool Consistency, Difference from Placebo (Week 5, ITT Population): 0.68
Change from Baseline in Stool Consistency, LS Mean (SE) (Week 5, ITT Population): 1.55 (0.074)
Change from Baseline in Stool Consistency, Mean (SD) (Week 5, ITT Population): 1.57 (1.594)
Change from Baseline in Stool Consistency, Difference from Placebo [11]: 0.69
Change from Baseline in Stool Consistency, LS Mean (SE) [11]: 1.58 (0.075)
Change from Baseline in Stool Consistency, Mean (SD) [11]: 1.58 (1.598)
Change from Baseline in Stool Consistency, Difference from Placebo [12]: 0.70
Change from Baseline in Stool Consistency, LS Mean (SE) [12]: 1.51 (0.072)
Change from Baseline in Stool Consistency, Difference from Placebo (Week 6, ITT Population): 0.72
Change from Baseline in Stool Consistency, LS Mean (SE) (Week 6, ITT Population): 1.55 (0.074)
Change from Baseline in Stool Consistency, Mean (SD) (Week 6, ITT Population): 1.57 (1.517)
Change from Baseline in Stool Consistency, Difference from Placebo [13]: 0.74
Change from Baseline in Stool Consistency, LS Mean (SE) [13]: 1.57 (0.075)
Change from Baseline in Stool Consistency, Mean (SD) [13]: 1.58 (1.520)
Change from Baseline in Stool Consistency, Difference from Placebo [14]: 0.64
Change from Baseline in Stool Consistency, LS Mean (SE) [14]: 1.50 (0.072)
Change from Baseline in Stool Consistency, Difference from Placebo (Week 7, ITT Population): 0.64
Change from Baseline in Stool Consistency, LS Mean (SE) (Week 7, ITT Population): 1.54 (0.074)
Change from Baseline in Stool Consistency, Mean (SD) (Week 7, ITT Population): 1.56 (1.540)
Change from Baseline in Stool Consistency, Difference from Placebo [15]: 0.67
Change from Baseline in Stool Consistency, LS Mean (SE) [15]: 1.56 (0.075)
Change from Baseline in Stool Consistency, Mean (SD) [15]: 1.57 (1.544)
Change from Baseline in Stool Consistency, Difference from Placebo [16]: 0.57
Change from Baseline in Stool Consistency, LS Mean (SE) [16]: 1.48 (0.072)
Change from Baseline in Stool Consistency, Difference from Placebo (Week 8, ITT Population): 0.58
Change from Baseline in Stool Consistency, LS Mean (SE) (Week 8, ITT Population): 1.51 (0.074)
Change from Baseline in Stool Consistency, Mean (SD) (Week 8, ITT Population): 1.53 (1.539)
Change from Baseline in Stool Consistency, Difference from Placebo [17]: 0.60
Change from Baseline in Stool Consistency, LS Mean (SE) [17]: 1.53 (0.075)
Change from Baseline in Stool Consistency, Mean (SD) [17]: 1.54 (1.543)
Change from Baseline in Stool Consistency, Difference from Placebo (Week 9, All Randomized (includes Duplicate Patients)): 0.67
